In patent US12011444B2, “N-substituted indole derivatives as PGE2 receptor modulators” (Idorsia Pharmaceuticals Ltd, priority 2015, dated 2024) one finds IC50 data, which are given here for 16 compounds.

The target in assay [1] is PTGER2 (EP2) (Homo sapiens (Human), UniProt P43116). Briefly: hEP2 b-arrestin assay (PathHunter HEK 293 PTGER2 b-arrestin cells). In kind it is cell-based. The settings on record: antagonistic activity on hEP2; mean where measured multiple times. The method, boiled down: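 HEK293 cells expressing ProLink-tagged EP2 and EA-fused β-arrestin 2 (enzyme fragment complementation) were seeded 24 h, pre-incubated with compound 15 min at 37 °C, then stimulated with 5 μM PGE2 (final) for 120 min.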
Sequence of PTGER2 (EP2) (P43116 whole entry, the tested form may be a part): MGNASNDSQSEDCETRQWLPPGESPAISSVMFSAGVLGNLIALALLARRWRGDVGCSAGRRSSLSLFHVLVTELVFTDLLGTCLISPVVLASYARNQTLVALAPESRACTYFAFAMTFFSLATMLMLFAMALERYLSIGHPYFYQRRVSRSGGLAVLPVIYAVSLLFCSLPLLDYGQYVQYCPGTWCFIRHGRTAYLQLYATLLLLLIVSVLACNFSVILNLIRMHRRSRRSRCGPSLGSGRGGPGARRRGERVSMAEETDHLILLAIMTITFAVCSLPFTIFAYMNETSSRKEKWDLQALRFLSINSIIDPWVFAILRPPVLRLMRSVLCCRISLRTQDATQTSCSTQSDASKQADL

Assay [2] concerns the target PTRGER4 (EP4) (Homo sapiens (Human), UniProt P35408). Briefly: hEP4 b-arrestin assay (PathHunter HEK 293 PTGER4 b-arrestin cells). To be noted: antagonistic activity on hEP4; mean where measured multiple times. It counts as cell-based. The method, boiled down:
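Stably transfected HEK293 cells carrying EP4–ProLink and β-arrestin 2–EA (β-gal fragment complementation), pre-incubated with compound 15 min at 37 °C, then stimulated with PGE2 (20 nM final) for 120 min at 37 °C. Chemiluminescence read after 1 h detection reagent at room temperature; activity per concentration expressed as percent of DMSO control.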

Sequence of PTRGER4 (EP4) (P35408 whole entry, looked up, the tested form may be a part): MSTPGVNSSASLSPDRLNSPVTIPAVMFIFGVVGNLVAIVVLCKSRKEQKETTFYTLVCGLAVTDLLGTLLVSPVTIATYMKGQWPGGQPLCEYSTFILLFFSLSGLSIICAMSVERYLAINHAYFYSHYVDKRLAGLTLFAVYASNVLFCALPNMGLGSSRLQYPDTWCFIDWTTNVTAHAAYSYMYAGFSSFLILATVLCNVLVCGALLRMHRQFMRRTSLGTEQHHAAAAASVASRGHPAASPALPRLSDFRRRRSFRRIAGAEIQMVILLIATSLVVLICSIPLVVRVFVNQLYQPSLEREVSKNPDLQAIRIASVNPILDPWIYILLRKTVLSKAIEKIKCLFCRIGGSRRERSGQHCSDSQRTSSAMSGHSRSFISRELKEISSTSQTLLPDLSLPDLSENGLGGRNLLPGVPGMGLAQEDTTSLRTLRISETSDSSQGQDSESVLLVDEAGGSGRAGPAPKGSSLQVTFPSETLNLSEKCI

Regarding `Cc1cc(Cl)cc2c1cc(C)n2CCNc1cc(-c2ccc(C(=O)O)c(OC(F)F)c2)ncn1` [compound 349, 4-{6-[2-(6-Chloro-2,4-dimethyl-indol-1-yl)-ethylamino]-pyrimidin-4-yl}-2-difluoromethoxy-benzoic acid], the IC50 (in general, the concentration needed to halve the response being measured) in assay [1] stood at 26 nM; in assay [2], 301 nM.

Regarding `CCOc1cc(-c2cc(NCCn3c(C)cc4c(F)c(F)cc(Cl)c43)ncn2)ccc1C(=O)O` [compound 350, 4-{6-[2-(7-Chloro-4,5-difluoro-2-methyl-indol-1-yl)-ethylamino]-pyrimidin-4-yl}-2-ethoxy-benzoic acid], the concentration for half-maximal inhibition (IC50) was 6 nM in assay [1] and 993 nM in assay [2].

Turning to `CCOc1cc(-c2cc(NCCn3c(C)cc4c(Cl)c(F)cc(Cl)c43)ncn2)ccc1C(=O)O` [compound 351], the IC50 in assay [1] came out at 52 nM; in assay [2], 688 nM.

As for `COc1cccc2c1cc(C)n2CCNc1cc(-c2ccc3[nH]c(C)nc3c2)ncn1` [compound 352], the 50% inhibitory concentration (IC50) came out at 49 nM in assay [1] and 481 nM in assay [2].

As for `CCNc1cc(-c2cc(NCCn3c(C)cc4c(C)ccc(F)c43)ncn2)cc(Cl)c1C(=O)O` [compound 353, 2-Chloro-6-ethylamino-4-{6-[2-(7-fluoro-2,4-dimethyl-indol-1-yl)-ethylamino]-pyrimidin-4-yl}-benzoic acid], the results for the IC50 in assay [1] and in assay [2] were 13 nM and 213 nM, respectively.

As to `Cc1cc(F)cc2c1cc(C)n2CCNc1cc(-c2ccc(C(=O)O)c(C3CC3)c2)ncn1` [compound 354], the concentration for half-maximal inhibition (IC50) in assay [1] came to 32 nM; in assay [2], 772 nM.

On to `Cc1ccc(F)c2c1cc(C)n2CCNc1cc(-c2ccc3ncccc3c2)ncn1` [compound 355], for which the IC50 in assay [1] was found to be 48 nM; in assay [2], 134 nM.

On to `CCCNc1cc(-c2cc(NCCn3c(C)cc4c(C)ccc(F)c43)ncn2)ccc1C(=O)O` [compound 356, 4-{6-[2-(7-Fluoro-2,4-dimethyl-indol-1-yl)-ethylamino]-pyrimidin-4-yl}-2-propylamino-benzoic acid], for which the concentration for half-maximal inhibition (IC50) in assay [1] amounted to 15 nM; in assay [2] it was 165 nM.

Turning to `Cc1ccc(F)c2c1cc(C)n2CCNc1cc(-c2ccc3ccncc3c2)ncn1` [compound 357], the figures for the IC50 in assay [1] and in assay [2] were 54 nM and 272 nM, respectively.

Consider `CCOc1cc(-c2cc(NCCn3c(C)cc4c(OC)ccc(F)c43)ncn2)ccc1CNC` [compound 358], for which the IC50 in assay [1] stood at 369 nM; in assay [2] it was 731 nM.

On to `COc1ccc(F)c2c1cc(C)n2CCNc1cc(-c2cc(F)c(S(N)(=O)=O)c(F)c2)ncn1` [compound 359, 2,6-Difluoro-4-{6-[2-(7-fluoro-4-methoxy-2-methyl-indol-1-yl)-ethylamino]-pyrimidin-4-yl}-benzenesulfonamide], for which the values for the half-inhibitory concentration (IC50) in assay [1] and in assay [2] were 34 nM and 500 nM, respectively.

Turning to `CNS(=O)(=O)c1ccc(-c2cc(NCCn3c(C)cc4c(OC)ccc(F)c43)ncn2)cc1C` [compound 360], the IC50 in assay [1] came out at 75 nM; in assay [2] it was 372 nM.

In the case of `COc1ccc(F)c2c1cc(C)n2CCNc1cc(-c2ccc(C(=O)NCCO)cc2)ncn1` [compound 361], the results for the IC50 in assay [1] and in assay [2] were 67 nM and 678 nM, respectively.

Regarding `CCNc1cc(-c2cc(NCCn3c(C)cc4c(OC)cccc43)ncn2)cc(Cl)c1C(=O)O` [compound 362, 2-Chloro-6-ethylamino-4-{6-[2-(4-methoxy-2-methyl-indol-1-yl)-ethylamino]-pyrimidin-4-yl}-benzoic acid], the 50% inhibitory concentration (IC50) in assay [1] is 3 nM; in assay [2] it was 281 nM.

In the case of `Cc1cc2ccccc2n1CCNc1cc(-c2ccc(-c3nnc(N)s3)cc2)ncn1` [compound 363], the IC50 was found to be 1 nM in assay [1] and 474 nM in assay [2].

As to `CCOc1cc(-c2cc(NCCn3c(C)cc4c(OC)c(F)cc(F)c43)ncn2)ccc1C(=O)O` [compound 364], the IC50 in assay [1] is 84 nM; in assay [2], 543 nM.
